From patent US8124744B2, “Macrolide derivatives” (Taisho Pharmaceutical Co., Ltd., priority 2006, dated 2012)
pIC50: −log10 of the molar value. ≈ marks a conversion by molar mass, not a printed value. Like-named read-outs stand apart in the source and are kept apart here.

How the values were obtained:
[1] = tested on: pro MMP-9 protein; assay: Inhibitory activity against proMMP-9 protein production (TNF α-stimulated mouse peritoneal exudate cells, ELISA); format: cell-based, C57BL/6J mice; details: for IC50: relative activity when the value of Comparative Agent 1 (IC50 = 10.04 ± 4.11 μM) is 10, on the increase of pro MMP-9 by TNF α 25 ng/ml, 24 hours, read-out: IC50 (μM)*
Procedure: (§1) To 7- to 9-week male C57BL/6J mice (purchased from CLEA Japan, Inc. or Japan SLC, Inc.), Zymosan A (SIGMA) derived from budding yeasts which is adjusted to be 1 mg/ml in a phosphate buffer solution (PBS, 10010-49, Invitrogen) was administered intraperitoneally at 1 ml per mouse to induce peritonitis. Three days later, filter-sterilized cell recovery buffer (2 mM EDTA, 0.5% bovine serum albumin, PBS, pH 7.4) was administered intraperitoneally at 5 ml per mouse to recover peritoneal exudata cells. The cells went through a cell strainer (70 μm nylon, FALCON) and were then washed twice with a Hanks solution (Invitrogen). The cells were suspended in 10% fetal calf serum-containing Dulbecco's modified Eagle's culture medium (Invitrogen). The suspension was seeded on a plate with 48 wells, after 6 hours, the culture medium was completely exchanged. After culturing for another 18 hours, test compounds were added at 0.02 to 20 μM of the final concentration. After 1 hour from the addition of the compounds, a tumor necrosis factor (TNF) α (R & D Systems) was added at 25 ng/ml of the final concentration, and 24 hours later, the culture supernatant was collected. The amount of pro MMP-9 protein in the supernatant was quantified by an enzyme-linked immunosorbent assay (ELISA) (R & D Systems), IC50 values of the test compounds on the increased amount by TNF α stimuli, were calculated by ORIGIN analysis software (trade name: OriginLab). In addition, minimal inhibitory concentration (MIC) of each test compounds (measured bacterium: Staphylococcus aureus ATCC29213) was measured. As a comparative agent […] A (clarithromycin) was used.

[2] = tested on: Staphylococcus aureus ATCC29213; assay: Minimal inhibitory concentration (MIC); format: cell-based
Procedure: as §1

Row | IC50 [1] | MIC [2] | SMILES | pIC50 ([1]; actual value of Comparative Agent 1 (table footnote), not normalised, read-out: IC50)
1 | 2.51 µM | > 128 µg/mL | CC[C@H]1OC(=O)[C@H](C)[C@@H](O[C@H]2C[C@@](C)(OC)[C@@H](OC(C)=O)[C@H](C)O2)[C@H](C)[C@@H](O[C@@H]2O[C@H](C)C[C@@H](N3CCCC(O)C3)[C@@H]2N(C)C)[C@@](C)(OC)C[C@@H](C)C(=O)[C@H](C)[C@@H](O)[C@]1(C)O (mixture of isomers) [Example 196, 4″-O-acetyl-3′-dedimethylamino-2′-deoxy-2′-dimethylamino-3-((±)-3-hydroxypiperidin-1-yl)-6-O-methylerythromycin A] | –
2 | 10 µM | 0.25 µg/mL (≈ 0.334 µM) | CC[C@H]1OC(=O)[C@H](C)[C@@H](O[C@H]2C[C@@](C)(OC)[C@@H](O)[C@H](C)O2)[C@H](C)[C@@H](O[C@@H]2O[C@H](C)C[C@H](N(C)C)[C@H]2O)[C@](C)(OC)C[C@@H](C)C(=O)[C@H](C)[C@@H](O)[C@]1(C)O [Comparative Agent 1, 6-O-methylerythromycin A, reference compound] | 5.00
3 | 8.88 µM | > 128 µg/mL | CC[C@H]1OC(=O)[C@H](C)[C@@H](O[C@H]2C[C@@](C)(OC)[C@@H](O)[C@H](C)O2)[C@H](C)[C@@H](O[C@@H]2O[C@H](C)C[C@H](N(C)C)[C@H]2OC)[C@@](C)(OC)C[C@@H](C)[C@H](N)[C@H](C)[C@@H](O)[C@]1(C)O [Compound T of Example 142, 9-deoxo-9-(S)-amino-6,2′-di-O-methylerythromycin A] | –
4 | 2.61 µM | > 128 µg/mL | CC[C@H]1OC(=O)[C@H](C)[C@@H](O[C@H]2C[C@@](C)(OC)[C@@H](OC(C)=O)[C@H](C)O2)[C@H](C)[C@@H](O[C@@H]2O[C@H](C)C[C@H](N(C)C)[C@H]2OC)[C@@](C)(OC)C[C@@H](C)[C@H](OC(=O)CCN(C)C)[C@H](C)[C@@H](O)[C@]1(C)O [Compound V of Example 147, 4″-O-acetyl-9-deoxo-9-(S)-(3-dimethylaminopropionyloxy)-6,2′-di-O-methylerythromycin A] | –
5 | 6.56 µM | > 128 µg/mL | CC[C@H]1OC(=O)[C@H](C)[C@@H](O[C@H]2C[C@@](C)(OC)[C@@H](OC(C)=O)[C@H](C)O2)[C@H](C)[C@@H](O[C@@H]2O[C@H](C)C[C@H](N(C)C)[C@H]2OC)[C@@](C)(OC)C[C@@H](C)[C@H](OC(=O)CCN(C)C)[C@H](C)[C@@H](OC(=O)CCN(C)C)[C@]1(C)O [Compound W of Example 147, 4″-O-acetyl-9-deoxo-9-(S)-(3-dimethylaminopropionyloxy)-11-O-(3-dimethylaminopropionyl)-6,2′-di-O-methylerythromycin A] | –
6 | 2.03 µM | > 128 µg/mL | CC[C@H]1OC(=O)[C@H](C)[C@@H](O[C@H]2C[C@@](C)(OC)[C@@H](OC(C)=O)[C@H](C)O2)[C@H](C)[C@@H](O[C@@H]2O[C@H](C)C[C@@H](N3CC[C@H](O)C3)[C@@H]2N(C)C)[C@@](C)(OC)C[C@@H](C)C(=O)[C@H](C)[C@@H](O)[C@]1(C)O [Compound X of Example 200, 4″-O-acetyl-3′-dedimethylamino-2′-deoxy-2′-dimethylamino-3′-((S)-3-hydroxypyrrolidin-1-yl)-6-O-methylerythromycin A] | –
7 | 3.02 µM | > 128 µg/mL | CC[C@H]1OC(=O)[C@H](C)[C@@H](O[C@H]2C[C@@](C)(OC)[C@@H](OC(C)=O)[C@H](C)O2)[C@H](C)[C@@H](O[C@@H]2O[C@H](C)C[C@@H](N3CC[C@@H](O)C3)[C@@H]2N(C)C)[C@@](C)(OC)C[C@@H](C)C(=O)[C@H](C)[C@@H](O)[C@]1(C)O [Compound Y of Example 200, 4″-O-acetyl-3′-dedimethylamino-2′-deoxy-2′-dimethylamino-3′-((R)-3-hydroxypyrrolidin-1-yl)-6-O-methylerythromycin A] | –
8 | 0.83 µM | > 128 µg/mL | CC[C@H]1OC(=O)[C@H](C)[C@@H](O)[C@H](C)[C@@H](O[C@@H]2O[C@H](C)C[C@H](N(C)Cc3ccccc3)[C@H]2O)[C@@](C)(O)C[C@@H](C)CN(C)[C@H](C)[C@@H](O)[C@]1(C)O [Example 20, 5-O-(3′-N-demethyl-3′-N-benzyl)desosaminyl-9-deoxo-9a-aza-9a-methyl-9a-homoerythronolide A] | –
9 | 0.38 µM | > 64 µg/mL | CC[C@H]1OC(=O)[C@H](C)[C@@H](O[C@H]2C[C@@](C)(OC)[C@@H](O)[C@H](C)O2)[C@H](C)[C@@H](O[C@@H]2O[C@H](C)C[C@H](N(C)C)[C@H]2OCCCc2ccccc2)[C@@](C)(OC)C[C@@H](C)C(=O)[C@H](C)[C@@H](O)[C@]1(C)O [Example 24, 2′-O-(3-phenylpropyl)-6-O-methylerythromycin A] | –
10 | 4.08 µM | > 128 µg/mL | CC[C@H]1OC(=O)[C@H](C)[C@@H](O[C@H]2C[C@@](C)(OC)[C@@H](O)[C@H](C)O2)[C@H](C)[C@@H](O[C@@H]2O[C@H](C)C[C@H](N(C)C)[C@H]2OC)[C@@](C)(OC)C[C@@H](C)C(=O)[C@H](C)[C@@H](O)[C@]1(C)O [Example 31, 6,2′-di-O-methylerythromycin A] | –
11 | 1.37 µM | – | CC[C@H]1OC(=O)[C@H](C)[C@@H](O)[C@H](C)[C@@H](O[C@@H]2O[C@H](C)C[C@H](N(C)Cc3cccc(OC)c3)[C@H]2O)[C@@](C)(OC)C[C@@H](C)C(=O)[C@H](C)[C@H]2NC(=O)O[C@@]21C [Example 65, 11-amino-11-deoxy-5-O-(3′-N-demethyl-3′-N-(3-methoxybenzyl)desosaminyl)-6-O-methylerythronolide A 11,12-cyclic carbamate] | –
12 | 1.59 µM | > 128 µg/mL | CC[C@H]1OC(=O)[C@H](C)[C@@H](O[C@H]2C[C@@](C)(OC)[C@@H](O)[C@H](C)O2)[C@H](C)[C@@H](O[C@@H]2O[C@H](C)C[C@@H](N3CCN(C)CC3)[C@@H]2N(C)C)[C@@](C)(OC)C[C@@H](C)C(=O)[C@H](C)[C@H]2NC(=O)O[C@@]21C [Example 89, 11-amino-3′-dedimethylamino-11,2′-dideoxy-2′-dimethylamino-3′-(4-methylpiperazin-1-yl)-6-O-methylerythromycin A 11,12-cyclic carbamate] | –
13 | 4.36 µM | > 128 µg/mL | CC[C@H]1OC(=O)[C@H](C)[C@@H](O[C@H]2C[C@@](C)(OC)[C@@H](OC(C)=O)[C@H](C)O2)[C@H](C)[C@@H](O[C@@H]2O[C@H](C)C[C@@H](N3CCOCC3)[C@@H]2N(C)C)[C@@](C)(OC)C[C@@H](C)C(=O)[C@H](C)[C@H]2NC(=O)O[C@@]21C [Example 95, 4″-O-acetyl-11-amino-3′-dedimethylamino-11,2′-dideoxy-2′-dimethylamino-3′-(4-morpholino)-6-O-methylerythromycin A 11,12-cyclic carbamate] | –
14 | 0.62 µM | > 128 µg/mL | CC[C@H]1OC(=O)[C@H](C)[C@@H](O[C@H]2C[C@@](C)(OC)[C@@H](O)[C@H](C)O2)[C@H](C)[C@@H](O[C@@H]2O[C@H](C)C[C@@H](N3CCCCC3)[C@@H]2N(C)C)[C@@](C)(OC)C[C@@H](C)C(=O)[C@H](C)[C@@H](O)[C@]1(C)O [Example 101, 3′-dedimethylamino-2′-deoxy-2′-dimethylamino-3′-(1-piperidino)-6-O-methylerythromycin A] | –
15 | 5 µM | > 128 µg/mL | CC[C@H]1OC(=O)[C@H](C)[C@@H](O[C@H]2C[C@@H](C)[C@H](O)[C@](C)(OC)O2)[C@H](C)[C@@H](O[C@@H]2O[C@H](C)C[C@H](N(C)CCN(C)C)[C@H]2OC)[C@@](C)(OC)C[C@@H](C)C(=O)[C@H](C)[C@@H](O)[C@]1(C)O [Example 104, 3′-N-demethyl-3′-N-(2-dimethylaminoethyl)-6,2′-di-O-methylerythromycin A] | –
16 | 4.38 µM | > 128 µg/mL | CCO[C@H]1[C@H](O[C@@H]2[C@@H](C)[C@H](O[C@@H]3C[C@@](C)(OC)[C@@H](O)[C@H](C)O3)[C@@H](C)C(=O)O[C@H](CC)[C@@](C)(O)[C@H](O)[C@@H](C)C(=O)[C@H](C)C[C@]2(C)OC)O[C@H](C)C[C@@H]1N(C)C [Example 105, 2′-O-ethyl-6-O-methylerythromycin A] | –
17 | 3.88 µM | > 128 µg/mL | CC[C@H]1OC(=O)[C@H](C)[C@@H](O[C@H]2C[C@@](C)(OC)[C@@H](O)[C@H](C)O2)[C@H](C)[C@@H](O[C@@H]2O[C@H](C)C[C@H](N(C)C)[C@H]2OCCCN(C)C)[C@@](C)(OC)C[C@@H](C)C(=O)[C@H](C)[C@@H](O)[C@]1(C)O [Example 115, 2′-O-(3-dimethylaminopropyl)-6-O-methylerythromycin A] | –
18 | 2.79 µM | > 128 µg/mL | CC[C@H]1OC(=O)[C@H](C)[C@@H](O[C@H]2C[C@@](C)(OC)[C@@H](OC(C)=O)[C@H](C)O2)[C@H](C)[C@@H](O[C@@H]2O[C@H](C)C[C@H](N(C)C)[C@H]2OCCCN(C)C)[C@@](C)(OC)C[C@@H](C)C(=O)[C@H](C)[C@@H](O)[C@]1(C)O [Example 116, 4″-O-acetyl-2′-O-(3-dimethylaminopropyl)-6-O-methylerythromycin A] | –
